From PubChem BioAssay (NCI)
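Values below derive from 48-hour exposures of cells grown in 96-well plates, with endpoints linearly interpolated between the two concentrations bracketing the appropriate inhibition level. TGI is the concentration that stops growth completely.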

System: SK-MEL-28 melanoma
Experiment: growth of human tumour cells (NCI), 48 h

Question: How did the TGI turn out when `CC(NC(=O)OCc1ccccc1)NC(=O)OC(C)(C)C` (stereo not drawn) was run?
Answer: > 100 µM

Question: How did the TGI turn out when `COc1nn(Cc2ccccn2)c2ccc([N+](=O)[O-])cc12` was run?
Answer: > 100 µM

Question: For `O=C(Nc1ccc(Cl)cc1)c1cc(S(=O)(=O)Nc2n[nH]c(Nc3ccc4ccccc4c3)n2)c(SSc2cc(Cl)c(C(=O)Nc3ccc(Cl)cc3)cc2S(=O)(=O)Nc2n[nH]c(Nc3ccc4ccccc4c3)n2)cc1Cl`, which TGI is on record?
Answer: 46.9 µM

Question: `CC1=NN(c2ccccc2)C2(C1)C(Cl)C(=O)N2c1nc2ccccc2s1` (stereo not drawn) was tested. Which TGI did it give?
Answer: > 100 µM

Question: Which TGI does the source give for `Cc1c(N=Nc2ccccc2)c(-c2ccccc2)n(C2OC(CO)C(O)C(O)C2O)c(=S)c1C#N` (stereo not drawn) here?
Answer: 19.6 µM

System: LOX IMVI melanoma
Experiment: growth of human tumour cells (NCI), 48 h

Question: How did the TGI turn out when `CC(=O)Nc1ccc(-c2nc3ccccc3s2)cc1Br` was run?
Answer: > 100 µM

Question: For `CC(NC(=O)OCc1ccccc1)NC(=O)OC(C)(C)C` (stereo not drawn), which TGI is on record?
Answer: > 100 µM

Question: Which TGI does the source give for `COc1nn(Cc2ccccn2)c2ccc([N+](=O)[O-])cc12` here?
Answer: > 100 µM

Question: How did the TGI turn out when `O=C(Nc1ccc(Cl)cc1)c1cc(S(=O)(=O)Nc2n[nH]c(Nc3ccc4ccccc4c3)n2)c(SSc2cc(Cl)c(C(=O)Nc3ccc(Cl)cc3)cc2S(=O)(=O)Nc2n[nH]c(Nc3ccc4ccccc4c3)n2)cc1Cl` was run?
Answer: 37.8 µM

Question: How did the TGI turn out when `CC1=NN(c2ccccc2)C2(C1)C(Cl)C(=O)N2c1nc2ccccc2s1` (stereo not drawn) was run?
Answer: 26.3 µM

Question: How did the TGI turn out when `Cc1c(N=Nc2ccccc2)c(-c2ccccc2)n(C2OC(CO)C(O)C(O)C2O)c(=S)c1C#N` (stereo not drawn) was run?
Answer: 12.4 µM

System: HT29 colon
Experiment: growth of human tumour cells (NCI), 48 h

Question: With `CC(=O)Nc1ccc(-c2nc3ccccc3s2)cc1Br` as the molecule, how does the TGI read?
Answer: > 100 µM

Question: `CC(NC(=O)OCc1ccccc1)NC(=O)OC(C)(C)C` (stereo not drawn) was tested. Which TGI did it give?
Answer: > 100 µM

Question: Which TGI does the source give for `COc1nn(Cc2ccccn2)c2ccc([N+](=O)[O-])cc12` here?
Answer: > 100 µM

Question: With `O=C(Nc1ccc(Cl)cc1)c1cc(S(=O)(=O)Nc2n[nH]c(Nc3ccc4ccccc4c3)n2)c(SSc2cc(Cl)c(C(=O)Nc3ccc(Cl)cc3)cc2S(=O)(=O)Nc2n[nH]c(Nc3ccc4ccccc4c3)n2)cc1Cl` as the molecule, how does the TGI read?
Answer: 38.2 µM

Question: `CC1=NN(c2ccccc2)C2(C1)C(Cl)C(=O)N2c1nc2ccccc2s1` (stereo not drawn) was tested. Which TGI did it give?
Answer: > 100 µM

Question: `Cc1c(N=Nc2ccccc2)c(-c2ccccc2)n(C2OC(CO)C(O)C(O)C2O)c(=S)c1C#N` (stereo not drawn) was tested. Which TGI did it give?
Answer: 29.7 µM

System: OVCAR-5 ovarian
Experiment: growth of human tumour cells (NCI), 48 h

Question: How did the TGI turn out when `CC(NC(=O)OCc1ccccc1)NC(=O)OC(C)(C)C` (stereo not drawn) was run?
Answer: > 100 µM

Question: Which TGI does the source give for `COc1nn(Cc2ccccn2)c2ccc([N+](=O)[O-])cc12` here?
Answer: > 100 µM

Question: How did the TGI turn out when `O=C(Nc1ccc(Cl)cc1)c1cc(S(=O)(=O)Nc2n[nH]c(Nc3ccc4ccccc4c3)n2)c(SSc2cc(Cl)c(C(=O)Nc3ccc(Cl)cc3)cc2S(=O)(=O)Nc2n[nH]c(Nc3ccc4ccccc4c3)n2)cc1Cl` was run?
Answer: 50.5 µM

Question: Which TGI does the source give for `CC1=NN(c2ccccc2)C2(C1)C(Cl)C(=O)N2c1nc2ccccc2s1` (stereo not drawn) here?
Answer: > 100 µM

Question: How did the TGI turn out when `Cc1c(N=Nc2ccccc2)c(-c2ccccc2)n(C2OC(CO)C(O)C(O)C2O)c(=S)c1C#N` (stereo not drawn) was run?
Answer: 28.9 µM

System: A549 NSCLC
Experiment: growth of human tumour cells (NCI), 48 h

Question: `CC(=O)Nc1ccc(-c2nc3ccccc3s2)cc1Br` was tested. Which TGI did it give?
Answer: > 100 µM

Question: For `CC(NC(=O)OCc1ccccc1)NC(=O)OC(C)(C)C` (stereo not drawn), which TGI is on record?
Answer: > 100 µM

Question: How did the TGI turn out when `COc1nn(Cc2ccccn2)c2ccc([N+](=O)[O-])cc12` was run?
Answer: > 100 µM

Question: With `O=C(Nc1ccc(Cl)cc1)c1cc(S(=O)(=O)Nc2n[nH]c(Nc3ccc4ccccc4c3)n2)c(SSc2cc(Cl)c(C(=O)Nc3ccc(Cl)cc3)cc2S(=O)(=O)Nc2n[nH]c(Nc3ccc4ccccc4c3)n2)cc1Cl` as the molecule, how does the TGI read?
Answer: > 100 µM

Question: Which TGI does the source give for `CC1=NN(c2ccccc2)C2(C1)C(Cl)C(=O)N2c1nc2ccccc2s1` (stereo not drawn) here?
Answer: > 100 µM

Question: `Cc1c(N=Nc2ccccc2)c(-c2ccccc2)n(C2OC(CO)C(O)C(O)C2O)c(=S)c1C#N` (stereo not drawn) was tested. Which TGI did it give?
Answer: 21.5 µM

System: T-47D breast
Experiment: growth of human tumour cells (NCI), 48 h

Question: `CC(=O)Nc1ccc(-c2nc3ccccc3s2)cc1Br` was tested. Which TGI did it give?
Answer: > 100 µM

Question: For `CC(NC(=O)OCc1ccccc1)NC(=O)OC(C)(C)C` (stereo not drawn), which TGI is on record?
Answer: > 100 µM

Question: With `COc1nn(Cc2ccccn2)c2ccc([N+](=O)[O-])cc12` as the molecule, how does the TGI read?
Answer: > 100 µM

Question: With `O=C(Nc1ccc(Cl)cc1)c1cc(S(=O)(=O)Nc2n[nH]c(Nc3ccc4ccccc4c3)n2)c(SSc2cc(Cl)c(C(=O)Nc3ccc(Cl)cc3)cc2S(=O)(=O)Nc2n[nH]c(Nc3ccc4ccccc4c3)n2)cc1Cl` as the molecule, how does the TGI read?
Answer: 43.6 µM

Question: For `CC1=NN(c2ccccc2)C2(C1)C(Cl)C(=O)N2c1nc2ccccc2s1` (stereo not drawn), which TGI is on record?
Answer: > 100 µM

Question: How did the TGI turn out when `Cc1c(N=Nc2ccccc2)c(-c2ccccc2)n(C2OC(CO)C(O)C(O)C2O)c(=S)c1C#N` (stereo not drawn) was run?
Answer: 4.74 µM

System: RXF 393 renal
Experiment: growth of human tumour cells (NCI), 48 h

Question: How did the TGI turn out when `CC(=O)Nc1ccc(-c2nc3ccccc3s2)cc1Br` was run?
Answer: 66 µM

Question: `CC(NC(=O)OCc1ccccc1)NC(=O)OC(C)(C)C` (stereo not drawn) was tested. Which TGI did it give?
Answer: 84.3 µM

Question: How did the TGI turn out when `COc1nn(Cc2ccccn2)c2ccc([N+](=O)[O-])cc12` was run?
Answer: > 100 µM

Question: Which TGI does the source give for `O=C(Nc1ccc(Cl)cc1)c1cc(S(=O)(=O)Nc2n[nH]c(Nc3ccc4ccccc4c3)n2)c(SSc2cc(Cl)c(C(=O)Nc3ccc(Cl)cc3)cc2S(=O)(=O)Nc2n[nH]c(Nc3ccc4ccccc4c3)n2)cc1Cl` here?
Answer: 79.9 µM

Question: For `CC1=NN(c2ccccc2)C2(C1)C(Cl)C(=O)N2c1nc2ccccc2s1` (stereo not drawn), which TGI is on record?
Answer: 97.7 µM

Question: For `Cc1c(N=Nc2ccccc2)c(-c2ccccc2)n(C2OC(CO)C(O)C(O)C2O)c(=S)c1C#N` (stereo not drawn), which TGI is on record?
Answer: 10.3 µM

System: SK-MEL-2 melanoma
Experiment: growth of human tumour cells (NCI), 48 h

Question: Which TGI does the source give for `CC(=O)Nc1ccc(-c2nc3ccccc3s2)cc1Br` here?
Answer: > 100 µM

Question: With `CC(NC(=O)OCc1ccccc1)NC(=O)OC(C)(C)C` (stereo not drawn) as the molecule, how does the TGI read?
Answer: > 100 µM

Question: With `COc1nn(Cc2ccccn2)c2ccc([N+](=O)[O-])cc12` as the molecule, how does the TGI read?
Answer: > 100 µM
